Experimental findings from patent US20260271987A1, “AEROSOL PRECURSOR COMPOSITION COMPRISING MONOMENTHYL ESTER” (RAI STRATEGIC HOLDINGS, INC., priority 2023, published 2026) are described below.

A short description of the series: Thermal analysis (flash pyrolysis and thermogravimetric analysis) of neat menthyl monosuccinate. It counts as physicochemical. Particulars: for Compounds volatilized by FP and TGA, Area %: neat menthyl monosuccinate sample, FP in helium, Teq=340° C., 40 seconds, GC/MS, TGA 30 to 340° C. at 20 degrees per minute. How it is done: Flash pyrolysis (FP) and thermogravimetric analysis (TGA) were conducted on a sample of menthyl monosuccinate.
For the FP, a pyroprobe Model 5200 (CDS Analytical, CDS, Oxford, PA 19363, USA) pyrolyzer was used. Heating was performed in helium in flash mode with Teq=340° C. using approximately 0.5 mg of neat monomenthyl succinate. Heating was performed for 40 seconds. GC/MS analysis was performed with separation on a DB-1701 column. For the TG, a Discovery TA 5500 (TA Instruments, New Castle, DE, USA) was used. The temperature range was 30 to 340° C. at a ramp rate of 20 degrees per minute. Neat monomenthyl succinate (2-3 mg) and silica (about 1.5 mg, containing 5% naphthalene) was used as an internal standard.

Each structure is given as a SMILES string.

As to `CC(C)[C@@H]1CC[C@@H](C)C[C@H]1OC(=O)CCC(=O)O` [Menthyl monosuccinate], the “Compounds volatilized by FP and TGA, Area %” value was 70%. Further, the “portion of the menthyl monosuccinate volatilized without decomposition” value (FP and TGA, up to 340° C.) is 70%.

Regarding `CC(C)[C@@H]1CC[C@@H](C)C[C@H]1O` [Menthol, (1R,2S,5R)-5-Methyl-2-(propan-2-yl)cyclohexan-1-ol], the “Compounds volatilized by FP and TGA, Area %” value came to 16.5%. The “major decomposition product formed from menthyl monosuccinate” value (FP and TGA, up to 340° C.) turned out to be 16.5%.
